Columns and labels:
[1] = biological target: T1, STAT1-SH2 (Homo sapiens, UniProt P42224); assay: STAT1-SH2 binding AlphaScreen assay; details: AlphaScreen assay (Figure S8A)
T1 construct: made in house
T1 sequence (P42224 1-750): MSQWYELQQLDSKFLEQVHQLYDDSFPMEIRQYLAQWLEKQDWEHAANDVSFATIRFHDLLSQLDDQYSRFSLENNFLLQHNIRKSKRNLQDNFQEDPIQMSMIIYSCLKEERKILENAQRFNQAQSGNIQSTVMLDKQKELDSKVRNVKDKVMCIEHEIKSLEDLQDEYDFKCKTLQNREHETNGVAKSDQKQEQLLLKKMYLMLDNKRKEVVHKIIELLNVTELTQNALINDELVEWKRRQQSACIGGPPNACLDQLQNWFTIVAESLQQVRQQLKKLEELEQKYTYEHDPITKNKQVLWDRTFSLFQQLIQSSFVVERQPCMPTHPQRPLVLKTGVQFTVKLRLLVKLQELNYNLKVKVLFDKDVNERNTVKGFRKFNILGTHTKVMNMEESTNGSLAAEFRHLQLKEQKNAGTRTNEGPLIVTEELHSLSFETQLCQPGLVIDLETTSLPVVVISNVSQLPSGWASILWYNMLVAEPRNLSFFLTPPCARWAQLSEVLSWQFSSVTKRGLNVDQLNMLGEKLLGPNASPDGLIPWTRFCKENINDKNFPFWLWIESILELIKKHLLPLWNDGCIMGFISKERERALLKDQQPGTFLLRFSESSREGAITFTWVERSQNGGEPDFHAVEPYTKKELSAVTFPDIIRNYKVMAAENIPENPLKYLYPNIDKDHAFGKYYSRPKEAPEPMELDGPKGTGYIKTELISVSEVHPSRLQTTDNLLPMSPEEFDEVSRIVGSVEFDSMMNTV
Protocol: Both AlphaLISA and AlphaScreen are bead-based nonradioactive binding assay systems for detecting biomolecular interactions in a microplate format. The binding of the biological partners brings the donor and acceptor beads into close proximity, and AlphaLISA produces a specific signal around 615 nm and AlphaScreen emits a broad signal between 520 and 620 nm. The assays were performed in a final reaction volume of 25 µL of the assay buffer, which contained 10 mM HEPES-NaOH (pH 7.4), 50 mM NaCl, 1 mM EDTA (pH 8.0), 0.1% (w/v) NP-40, and 10 ng/µL (w/v) BSA in a 96-well microplate at 25°C. […] Streptavidin-coated donor beads (0.25 µg/well) and anti-DIG AlphaLISA acceptor beads (0.25 µg/well) were added and incubated for 90 min before the signals were measured with EnVison Xcite (PerkinElmer Life Sciences). […] Streptavidin-coated donor beads (0.25 µg/well) and anti-FITC AlphaScreen acceptor beads (0.25 µg/well) were added and incubated for 90 min before the signals were measured with EnVison Xcite. […] Streptavidin-coated donor beads (0.50 µg/well), anti-DIG AlphaLISA (0.25 µg/well), and anti-FITC AlphaScreen acceptor beads (0.25 µg/well) were added and incubated for 90 min before the signals were measured with EnVison Xcite. […] The bound state was measured by incubating the labeled peptide and the protein without test compounds. […] The IC50 value was calculated by Graph pad prism 4.0. […]

[2] = test system: STAT3 reporter HeLa stable cell line; assay: STAT3 luciferase reporter gene assay; format: cell-based; details: pretreatment before oncostatin M stimulation (Figure S10)
Protocol: STAT3 reporter HeLa stable cell lines were incubated in a 96-well microplate for 24 hours. Cells were pretreated with test compounds for 1 hour, and 10 ng/ml (w/v) of oncostatin M were applied and incubated for 4 hours. Cells were washed with medium not supplemented with phenol red, and Steady-Glo® reagent (Promega) was applied. After 5 min incubation, the signals were detected by ARVO Light 1420 (PerkinElmer Life Sciences). The relative signal intensity was calculated in each well as the ratio for the mean signal of vehicle.

## O=C1C=CC(=NC2=C(Cl)C(=O)c3ccccc3C2=O)C=C1 [Compound 1]
[1]
  Inhibition of STAT1-SH2 binding: inhibited neither
[2]
  Effect on STAT3 transcriptional activity: reduced the STAT3 transcriptional activity in a dose-dependent manner

— paper PMC3745430, “Novel Multiplexed Assay for Identifying SH2 Domain Antagonists of STAT Family Proteins” (PLoS ONE, 2013)
